Test results reported in US20160175318A1, “COMPOSITIONS COMPRISING ANTIBACTERIAL AGENT AND TAZOBACTAM” (WOCKHARDT LIMITED, priority 2013, published 2016).
Like-named read-outs stand apart in the source and are kept apart here.

Tests used:
Type in all cases: cell-based
E. cloacae M-20 = test: MIC by agar dilution (CLSI) against highly resistant ESBL strain; conditions: E. cloacae M-20
How it was run: (§1)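 Cephalosporins, including cefepime, combined with tazobactam; CLSI agar dilution with twofold steps. Overnight cultures diluted, inoculated, incubated 35±2° C for 16-20 h, ambient air, then checked for growth.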

E. coli 7MP [1] = test: as above; conditions: E. coli 7MP
How it was run: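 Overnight cultures were diluted and spotted onto agar containing doubling dilutions of the cephalosporin, alone or with tazobactam. Growth versus no growth was scored after 16-20 h at 35±2° C in ambient air, following CLSI procedure.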

E. coli B-89 [2] = test: as above; conditions: E. coli B-89
How it was run: as §1

E. coli B123 = test: as above; conditions: for Activity (MIC, method of Example 1), Table 7: E. coli B-123; for MIC: Escherichia coli, B123, E. coli B123, read-out: MIC
How it was run: as §1

E. coli M50 [3] = test: as above
How it was run: as §1

K. pneumoniae M150 = test: as above
How it was run: as §1

E. coli 7MP [4] = test: Quantitative drug diffusion assay (disc, zone of inhibition, CLSI); parameters: key to Interpretation of zone as per CLSI recommendations: R: Resistant; I: Intermediate; S: Sensitive (Interpretation as per CLSI recommendations, 2010)
How it was run: (§2)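 Diluted overnight E. coli cultures were seeded into molten agar, and 6 mm antibiotic discs containing cefepime/tazobactam or penicillin/ESBL-inhibitor combinations were applied per CLSI. Inhibition zones were read after 16-18 h at 35±2° C in ambient air.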

E. coli B-123 = test: as above; parameters: key to Interpretation of zone as per CLSI recommendations: R: Resistant; I: Intermediate; S: Sensitive (Interpretation as per CLSI recommendations, 2010)
How it was run: as §2

E. coli B-89 [5] = test: as above; parameters: key to Interpretation of zone as per CLSI recommendations: R: Resistant; I: Intermediate; S: Sensitive (Interpretation as per CLSI recommendations, 2010)
How it was run: as §2

E. coli M-138 = test: as above; parameters: key to Interpretation of zone as per CLSI recommendations: R: Resistant; I: Intermediate; S: Sensitive (Interpretation as per CLSI recommendations, 2010)
How it was run: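 Cefepime plus tazobactam and penicillins plus their ESBL inhibitors tested by CLSI disc diffusion. Diluted overnight cultures were seeded into molten, cooled agar; 6 mm antibiotic discs placed on the surface. Inhibition zones read after 16-18 h at 35±2° C in ambient air.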

E. coli M50 [6] = test: as above; parameters: key to Interpretation of zone as per CLSI recommendations: R: Resistant; I: Intermediate; S: Sensitive (Interpretation as per CLSI recommendations, 2010)
How it was run: as §2

E. coli S-112 = test: as above; parameters: key to Interpretation of zone as per CLSI recommendations: R: Resistant; I: Intermediate; S: Sensitive (Interpretation as per CLSI recommendations, 2010)
How it was run: as §2

[7] = ESBL inhibitor 0 mcg (antibiotic alone)
[8] = Table 5, with Tazobactam 10 mcg

Activity (MIC, method of Example 1), Table 7 (E. cloacae M-20; antibiotic alone): > 64 µg/mL | Activity (MIC, method of Example 1), Table 7 (E. cloacae M-20; with Clavulanic acid 4 mcg): 16 µg/mL | Activity (MIC, method of Example 1), Table 7 (E. cloacae M-20; with Clavulanic acid 8 mcg): 8 µg/mL | Activity (MIC, method of Example 1), Table 7 (E. cloacae M-20; with Sulbactam 4 mcg): 32 µg/mL | Activity (MIC, method of Example 1), Table 7 (E. cloacae M-20; with Sulbactam 8 mcg): 16 µg/mL | Activity (MIC, method of Example 1), Table 7 (E. cloacae M-20; with Tazobactam 4 mcg): 4 µg/mL | MIC (E. cloacae M-20; with Tazobactam 8 mcg): 4 µg/mL | Activity (MIC, method of Example 1), Table 7 (E. cloacae M-20; with Tazobactam, (4 mcg)): 4 µg/mL | MIC (E. cloacae M-20; Enterobacter cloacae, M20, 20 h, Tazobactam 0 mcg (antibiotic alone), read-out: MIC): > 64 µg/mL | Activity (MIC, method of Example 1), Table 7 (E. coli 7MP [1]; antibiotic alone): > 64 µg/mL | Activity (MIC, method of Example 1), Table 7 (E. coli 7MP [1]; with Clavulanic acid 4 mcg): 16 µg/mL | Activity (MIC, method of Example 1), Table 7 (E. coli 7MP [1]; with Clavulanic acid 8 mcg): 8 µg/mL | Activity (MIC, method of Example 1), Table 7 (E. coli 7MP [1]; with Sulbactam 4 mcg): 16 µg/mL | Activity (MIC, method of Example 1), Table 7 (E. coli 7MP [1]; with Sulbactam 8 mcg): 16 µg/mL | Activity (MIC, method of Example 1), Table 7 (E. coli 7MP [1]; with Tazobactam 4 mcg): 8 µg/mL | MIC (E. coli 7MP [1]; with Tazobactam 4 mcg): 8 µg/mL | MIC (E. coli 7MP [1]; with Tazobactam 8 mcg): 4 µg/mL | Activity (MIC, method of Example 1), Table 7 (E. coli 7MP [1]; with Tazobactam, (4 mcg)): 4 µg/mL | MIC (E. coli 7MP [1]; Escherichia coli, 7MP, 20 h, Tazobactam 0 mcg (antibiotic alone), read-out: MIC): > 64 µg/mL | MIC (E. coli B-89 [2]; with Tazobactam 8 mcg): 2 µg/mL | MIC (E. coli B-89 [2]; Escherichia coli, B89, 20 h, Tazobactam 0 mcg (antibiotic alone), read-out: MIC): > 64 µg/mL | Activity (MIC, method of Example 1), Table 7 (E. coli B123; antibiotic alone): > 64 µg/mL | Activity (MIC, method of Example 1), Table 7 (E. coli B123; with Clavulanic acid 4 mcg): 8 µg/mL | Activity (MIC, method of Example 1), Table 7 (E. coli B123; with Clavulanic acid 8 mcg): 8 µg/mL | Activity (MIC, method of Example 1), Table 7 (E. coli B123; with Sulbactam 4 mcg): 8 µg/mL | Activity (MIC, method of Example 1), Table 7 (E. coli B123; with Sulbactam 8 mcg): 16 µg/mL | Activity (MIC, method of Example 1), Table 7 (E. coli B123; with Tazobactam 4 mcg): 4 µg/mL | Activity (MIC, method of Example 1), Table 7 (E. coli B123; with Tazobactam, (4 mcg)): 2 µg/mL | MIC (E. coli B123; Tazobactam 0 mcg (antibiotic alone)): > 64 µg/mL | MIC (E. coli B123; with Tazobactam 4 mcg): 4 µg/mL | MIC (E. coli B123; with Tazobactam 8 mcg): 2 µg/mL | MIC (E. coli M50 [3]; Escherichia coli, 20 h, Tazobactam 0 mcg (antibiotic alone), read-out: MIC): > 64 µg/mL | MIC (E. coli M50 [3]; with Tazobactam 4 mcg): 2 µg/mL | MIC (E. coli M50 [3]; with Tazobactam 8 mcg): 2 µg/mL | MIC (K. pneumoniae M150; K. pneumoniae M150, with Tazobactam 4 mcg): 4 µg/mL | MIC (K. pneumoniae M150; K. pneumoniae M150, with Tazobactam 8 mcg): 4 µg/mL | MIC (K. pneumoniae M150; Klebsiella pneumoniae, M150, K. pneumoniae M150, Tazobactam 0 mcg (antibiotic alone), read-out: MIC): > 64 µg/mL | MIC (K. pneumoniae M150; Klebsiella pneumoniae, M150, K. pneumoniae M150, with Tazobactam 4 mcg, read-out: MIC): 4 µg/mL | MIC (K. pneumoniae M150; Klebsiella pneumoniae, M150, K. pneumoniae M150, with Tazobactam 8 mcg, read-out: MIC): 4 µg/mL
SMILES: CO/N=C(\C(=O)N[C@@H]1C(=O)N2C(C(=O)[O-])=C(C[N+]3(C)CCCC3)CS[C@H]12)c1csc(N)n1 [Cefepime]
Zone of Inhibition (E. coli 7MP [4]; [7]): 16 mm | Interpretation of zone as per CLSI recommendations (E. coli 7MP [4]; Table 5, ESBL inhibitor 0 mcg): (I) | Interpretation of zone as per CLSI recommendations (E. coli 7MP [4]; [8]): (S) | Zone of Inhibition (E. coli 7MP [4]; with Tazobactam 10 mcg): 20.5 mm | Zone of Inhibition (E. coli B-123; [7]): 8 mm | Interpretation of zone as per CLSI recommendations (E. coli B-123; Table 5, ESBL inhibitor 0 mcg): (R) | Interpretation of zone as per CLSI recommendations (E. coli B-123; [8]): (S) | Zone of Inhibition (E. coli B-123; with Tazobactam 10 mcg): 20 mm | Zone of Inhibition (E. coli B-89 [5]; [7]): 8 mm | Interpretation of zone as per CLSI recommendations (E. coli B-89 [5]; Table 5, ESBL inhibitor 0 mcg): (R) | Interpretation of zone as per CLSI recommendations (E. coli B-89 [5]; [8]): (S) | Zone of Inhibition (E. coli B-89 [5]; with Tazobactam 10 mcg): 20 mm | Zone of Inhibition (E. coli M-138; [7]): Nil | Interpretation of zone as per CLSI recommendations (E. coli M-138; Table 5, ESBL inhibitor 0 mcg): (R) | Interpretation of zone as per CLSI recommendations (E. coli M-138; [8]): (S) | Zone of Inhibition (E. coli M-138; with Tazobactam 10 mcg): 23 mm | Zone of Inhibition (E. coli M50 [6]; [7]): 7.5 mm | Interpretation of zone as per CLSI recommendations (E. coli M50 [6]; Table 5, ESBL inhibitor 0 mcg): (R) | Interpretation of zone as per CLSI recommendations (E. coli M50 [6]; [8]): (S) | Zone of Inhibition (E. coli M50 [6]; with Tazobactam 10 mcg): 24 mm | Zone of Inhibition (E. coli S-112; [7]): 17 mm | Interpretation of zone as per CLSI recommendations (E. coli S-112; Table 5, ESBL inhibitor 0 mcg): (I) | Interpretation of zone as per CLSI recommendations (E. coli S-112; [8]): (S) | Zone of Inhibition (E. coli S-112; with Tazobactam 10 mcg): 20.5 mm
